# Tests used:
# skin (tanning) = assay: D-ribose lotion tested against commercial tanning creams on upper front thigh; format: in vivo
# Experimental: In other experiments, D-ribose was tested against Jergen's Dark Tanning cream on the upper front thigh of the subject. Each was applied liberally over a six inch by four inch area twice a day for five days. The “tanning” agent in this cream is unknown. The areas on which the Jergen's was applied tanned in 36 hours, hit maximum darkness in two days and faded in eight days. […] In this test, the D-ribose caused maximum darkness in five days and persisted for two weeks after application was discontinued.
# D-ribose was also tested against l'Oreal Sublime Glow as above. The active ingredients in this cream were 7.5% octinoate, octsalate 5.0%, octocrylene 3.0% and oxybenzone 6.17%. […] This color began fading within two days of last application and was completely faded within a week.
# The evenness of the D-ribose tanned areas can be attributed to the natural production of melanin due to the stimulation by D-ribose penetrating and diffusing to the dermal cells.
# melanocytes [1] = assay: 4% D-ribose lotion on back of forearm, applied one to four days (melanocyte stimulation vs Maillard reaction); format: in vivo
# Text: In order to ascertain that the tan color was due to the stimulation of melanocytes and not to a chemical reaction such as the Maillard reaction, the subject applied 4% D-ribose in the above referenced lotion to the back of the forearm. The lotion was applied one day only; two days; three days; and four days. […] By one week after application, the areas to which lotion was applied for one or two days began fading and were completely faded by ten days. The areas to which was applied for three or four days also began fading at one week after application and were completely faded by ten days after last application. The subject had areas of vitilago, a scar and freckles.
# melanocytes [2] = assay: Effect of D-ribose on melanocytes in vivo: four concentrations in commercial lotion on inside forearm; conditions: for Days to maximum tan / Days to first sign of tanning: twice a day, inside forearm; for Days to first sign of tanning: no sun light; for Spread of tanned area beyond the application site: two inch application area
# Text: To determine the effect of D-ribose on melanocytes, the dermal cells that produce a tanning color when exposed to sunlight, four concentrations of D-ribose suspended in a commercial lotion were applied with a cotton applicator twice a day to two inch areas of A subject's inside forearm. The test area was not exposed to sun light. The composition of the lotion was: water, glycerin, mineral oil, stearic acid, glycol stearate, stearamide AMP, petrolatum, dimethicone, chamomile, helianthus, sambucas, theobroma, seed butter, glyceryl, stearate, cetyl alcohol, triethanolamine, acetylated lanolin alcohol and cetyl acetate. The results are shown in Table I. Application was stopped after 11 days. Color began to fade at 14 days in all cases and was gone about two weeks after last application. […] The color spread, presumably because of lateral diffusion of the D-ribose within the dermis, stimulating melanocytes outside the application site. The spread area decreased in intensity of color as the diffused D-ribose decreased in concentration.
# [3] = test system: fibroblasts in the basal layer; conditions: cited from earlier work
# [4] = test system: cultured normal human fibroblasts; conditions: cited from earlier work
# lymphocytes = conditions: cell culture; U.S. Pat. No. 6,663,859; cited from earlier work
# skin = assay: Preliminary experiments: D-ribose without penetrant applied to wound or skin; format: in vivo
# Text: Since the object of this invention is to deliver active ingredient to the basal and dermal cells below the epidermis, when the skin barrier is intact, it has been found necessary to include a penetrant in the solutions, lotions or creams of this invention. Such a penetrant will enhance the delivery of active ingredient by transitory disruption of the cell to cell connections of the skin. Penetrants in general include ionic detergents, non-ionic detergents, fatty acids, organic solvents and oils. Certain constructs such as liposomes and nanoparticles can also be used to transport active ingredient through the stratum corneum barrier. It is well known in the industry to select a penetrant with the desired characteristics, which vary in effect from the intense penetration of the solvent dimethyl sulfoxide (DMSO) which cause the rapid co-transport past the skin barrier of any agent present on the skin, to the milder action of dilute ethanol. Of recent interest are the constructs termed liposomes and nanoparticles, which are molecules that form closed structures that can incorporate an active ingredient. Liposomes and nanoparticles can readily penetrate otherwise impermeable barriers.
# The skin is a barrier. […]
# skeletal muscle ATP = conditions: oral administration; U.S. Pat. Nos. 6,159,942 and 6,534,480; cited from earlier work
# [5] = upper front thigh, twice a day for five days
# [6] = 4% D-ribose lotion applied for one or two days
# [7] = 4% D-ribose lotion applied for three or four days
# [8] = all cases, application stopped after 11 days
# [9] = composition containing 1% D-ribose, female volunteers
structure (smiles),measurement,setting,value
O=C[C@H](O)[C@H](O)[C@H](O)CO [D-ribose],Uniformity of tanned area,skin (tanning); all experiments,uniform and not blotchy
same,Persistence of tan after application was discontinued,skin (tanning); [5],two
same,Time to maximum darkness,skin (tanning); [5],five
same,Spread of color beyond area of application,"skin (tanning); upper front thigh, twice a day for five days, D-ribose at 4% in lotion",spread beyond the area of application
same,Tanning by day three,"melanocytes [1]; 4% D-ribose in lotion, back of forearm, all four areas (applied one, two, three, four days)",lightly tanned
same,Time after application at which areas began fading,melanocytes [1]; [6],one
same,Time until completely faded,melanocytes [1]; [6],ten
same,Time after application at which areas began fading,melanocytes [1]; [7],one
same,Time after last application until completely faded,melanocytes [1]; [7],ten
same,Tanning of areas of vitilago and scarring,melanocytes [1]; subject's areas of vitilago and a scar,did not tan
same,Effect on freckles,melanocytes [1]; subject's freckles,got darker
same,Days to maximum tan,melanocytes [2]; 1.0% w/v D-ribose in lotion,No tanning
same,Days to first sign of tanning,melanocytes [2]; 1.0% w/v D-ribose in lotion,No tanning
same,Color of spread area versus center of application,melanocytes [2]; 4% w/v D-ribose,diameter. The spread area is not as dark as the
same,Days to maximum tan,melanocytes [2]; 4% w/v D-ribose in lotion,Six
same,Days to first sign of tanning,melanocytes [2]; 4% w/v D-ribose in lotion,Four
same,Diameter of tanned area,"melanocytes [2]; 4% w/v D-ribose, at six days",the tanned area is about four inches in
same,Spread of tanned area beyond the application site,"melanocytes [2]; 4% w/v D-ribose, at six days","two inches beyond the application site, that is,"
same,Color of tan compared with other concentration,melanocytes [2]; 6% w/v D-ribose,"A little darker than the 4%, the tanned area has"
same,Diameter of tanned area,melanocytes [2]; 6% w/v D-ribose,"site, that is, the tanned area is about four inches"
same,Days to maximum tan,melanocytes [2]; 6% w/v D-ribose in lotion,Six
same,Days to first sign of tanning,melanocytes [2]; 6% w/v D-ribose in lotion,Four
same,Spread of tanned area beyond the application site,melanocytes [2]; 6% w/v D-ribose,spread about two inches beyond the application
same,Color of tan compared with other concentration,melanocytes [2]; 10% w/v D-ribose,the same as for the 6%.
same,Diameter of tanned area,melanocytes [2]; 10% w/v D-ribose,is now about eight inches in diameter. Color is
same,Days to maximum tan,melanocytes [2]; 10% w/v D-ribose in lotion,Six
same,Days to first sign of tanning,melanocytes [2]; 10% w/v D-ribose in lotion,Four
same,Spread of tanned area beyond the application site,melanocytes [2]; 10% w/v D-ribose,The tanned area has spread about three inches
same,Day at which color began to fade,melanocytes [2]; [8],14 days
same,Time after last application until color was gone,melanocytes [2]; [8],about two
same,Intensity of tan reached,melanocytes [2]; fair-skinned subject,medium intensity
same,Quality of tan color,melanocytes [2]; fair-skinned subject,identical to that resulting from normal sun tanning
same,Effect on face wrinkles,[3]; [9],reduce face wrinkles
same,Tanning effect,[3]; [9],No tanning effect
same,Melanin formation,"[3]; lower amounts of D-ribose, as noted in the '707 application",do not stimulate melanin formation
same,Effect on fibroblasts subjected to hypoxic shock,[4],protective effect
same,Effect on growth of lymphocytes,lymphocytes,stimulates the growth of lymphocytes
same,Effect on tanning,"skin; D-ribose in water applied to the skin, no penetrant",no effect on tanning
same,Effect on improving skin,skin; preliminary application of ribose without penetrant,unsuccessful
same,Effect on ATP levels in skeletal muscle,skeletal muscle ATP,raises ATP levels in skeletal muscle

# Source: patent publication US20090232750A1, “Compositions for indoor tanning” (priority 2008, published 2009)
